According to US12514929B2, “Deformable nano-scale vehicles (DNVS) for trans-blood brain barrier, trans-mucosal, and transdermal drug delivery” (The Regents of the University of California, priority 2017, dated 2026):

What was measured:
Aβ40 = assay: Effect of galangin and progalangin on Aβ40; parameters: species or system mice; conditions: mouse, in vivo
Source text: (§1) Progalangin reduced Aβ40 as well as Aβ42 levels (FIG. 19B).

[1] = Pharmacokinetics of galangin and progalangin in mice; type: in vivo; conditions: at 1 h
Source text: as §1

Aβ42 = assay: Effect of galangin and progalangin on Aβ42; parameters: species or system mice; conditions: mouse, in vivo
Source text: as §1

Brain Cmax [1]: approximately 50 ng/g
SMILES: O=c1c(O)c(-c2ccccc2)oc2cc(O)cc(O)c12 [Galangin, galangin]
Aβ40 levels (Aβ40): reduce Aβ40 levels
Aβ42 levels (Aβ42): no effect
